The record followed here is US8901118B2, “Compounds and methods for kinase modulation, and indications therefor” (Plexxikon Inc., priority 2010, dated 2014).

In experiment [1] the target is CYP2C9 (Homo sapiens, UniProt P11712). As to the kind of experiment: CYP2C9 inhibition (fluorescent substrate MFC). The note with it: read-out: Cyp IC50 2C9. In kind it is in vitro ADME. Here is the method:
CYP (Cytochrome P450) enzymes are the major drug metabolizing enzymes present in the liver. The inhibition of CYP enzyme activity (IC50) for each of CYP1A2, CYP2C19, CYP2C9, CYP2D6, CYP3A4(BFC) and CYP3A4(BQ) is determined for compounds, where inhibition of metabolism of a known substrate leads to a decrease in the fluorescence of the metabolized product. The fluorescence of the product is monitored as a function of compound concentration. Compounds are dissolved in DMSO to a concentration of 100 mM. These are diluted 1 μL into 82 μL of acetonitrile. An 11 μL aliquot of this solution is then added to 204 μL of cofactor mix (1.3% NADPH Regeneration system Solution A, 1.04% NADPH Regeneration system Solution B from BD Biosciences, 5% acetonitrile and 0.05% DMSO). These are then serially diluted 1:1 (160 μL to 160 μL co-factor mix) for a total of 10 points. A 10 μL aliquot of this final mixture is dispensed into 384 well assay plates and incubated for 10 minutes at 37° C. […] Assay plates are incubated at 37° C. (CYP1A2-15 min; CYP2C9-45 min; CYP2C19, 2D6 and 3A4-30 min) and read in a Tecan Safire 2 plate reader (CYP1A2, 2C19 and 3A4 409 ex/460 em; CYP2C9 and 2D6 409 ex/530 em). The signal versus compound concentration is used to determine the IC50. The enzymes and substrates for this assay are obtained from BD Biosciences.

Experiment [2] has as its target T1, BCR-NTRK2 BaF3 cells (Homo sapiens, UniProt Q16620).
T1 construct: fused on or other part: P11274 (Breakpoint cluster region protein)
As to the kind of experiment: BaF3 BCR-NTRK2 cell proliferation assay (ATPlite). The following applies: read-out: Inhibition of Cell Proliferation IC50, BCR/BaF3 TrkB. It is filed as cell-based. Here is the method: Compounds are assessed in a variety of cell based assays. For example BaF3 cells engineered with any of BCR-FMS, BCR-KIT, BCR-FLT3, BCR-NTRK1, BCR-NTRK2, and BCR-NTRK3, are used in cell proliferation assays to assess inhibitory activity of Fms, Kit, Flt-3, TrkA, TrkB, and TrkC, respectively. An MV-4-11 (leukemia) cell proliferation assay is used to assess inhibitory activity in Flt-3, and SKNSH (human neuroblastoma) cell proliferation assay is used to assess efficacy of Fms/Trk inhibitors. Additional cells may be assayed similarly to assess the efficacy of Fms/Trk inhibitors, such as MiaPaCa (human pancreatic cancer) and Capan-1 (human pancreatic carcinoma) cells. Reagent and assay conditions are as follows: • BaF3 cells: • Maintained in RPMI containing 10% FBS, 1% PenStrep, 1% NEAA, and 1% L-Glutamine, supplemented with 1 mg/mL G418 and 5% WEHI-CM (or recombinant murine IL-3). • Confluent cells are split 1:50 to 1:100 every 3-4 days. • MV-4-11 cells: • Maintained in Iscove's Modified Dulbecco's Medium containing 10% FBS. • Confluent cells are split 1:4 every 3-4 days. • SKNSH cells: RPMI containing 10% FBS. On day 1, cells are counted, then centrifuged in a conical tube for 5 minutes at 1000 rpm. The supernatant is removed and cells are re-suspended as follows: • BaF3: resuspend in growth media +1 mg/mL G418 (without WEHFIL-3) to 2×10^5 cells/mL. • MV-4-11: resuspend in growth media to 5×10^5 cells/mL. • SKNSH: resuspend in growth media to 2×10^4 cells/mL. The cells are plated (50 μL, 150 μL for SKNSH cells) in each well of a 96-well dish (Corning 3610) and incubated at 37° C. in 5% CO2 overnight, cells plated to a final concentration of cells as follows: • BaF3: 10,000 cells per well. • MV-4-11: 25,000 cells per well. • SKNSH: 3,000 cells per well. On day 2, compound at a maximum concentration of 5 mM is serially diluted 1:3 for a total of 8 point titration with DMSO as a control. A 1 μL aliquot of each dilution point is added to 249 μL growth media and 50 μL is added to a well containing cells, providing 10 μM compound for the maximum concentration point. The cells are incubated for 3 days at 37° C. in 5% CO2. For SKNSH cells, a 0.75 μL aliquot of appropriate dilution in DMSO is added to 150 μL of cells. On day 5, ATPlite 1 step Luminescence Assay System (Perkin Elmer #6016739) is brought to room temperature along with the cell cultures. ATPlite is added to each well as follows: • BaF3: 25 μL per well. • MV-4-11: 40 μL per well. • SKNSH: 20 μL per well. The cells are incubated at room temperature for 10 minutes, then luminescence is read on Safire reader. The measured luminescence correlates directly with cell number, such that the reading as a function of compound concentration is used to determine the IC50 value.
It is understood that the results of these assays may vary as assay conditions are varied. Inhibition levels determined under the conditions described herein represent a relative activity for the compounds tested under the specific conditions employed. The cell based assays are likely to show variability due to the complexity of the system and the sensitivity thereof to any changes in the assay conditions. […] Results for compounds that are tested and show substantially no inhibition below the highest tested concentration are represented as “-” in the tables below. In some instances, the compounds were not tested in all of the assays, or assay results were not valid, as indicated by NA in the tables below.
(In general: ATP-based viability assays read luminescence as a measure of living cells.)

T1 sequence (Q16620 538-807): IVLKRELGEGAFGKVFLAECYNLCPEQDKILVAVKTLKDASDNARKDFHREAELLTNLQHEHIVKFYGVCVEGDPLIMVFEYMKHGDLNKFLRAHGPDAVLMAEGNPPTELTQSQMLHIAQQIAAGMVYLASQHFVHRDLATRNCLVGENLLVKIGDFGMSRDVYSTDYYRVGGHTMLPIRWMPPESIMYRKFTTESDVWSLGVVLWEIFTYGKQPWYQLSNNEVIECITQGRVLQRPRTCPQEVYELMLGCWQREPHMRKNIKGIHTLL
Chain of CYP2C9 (P11712 whole entry): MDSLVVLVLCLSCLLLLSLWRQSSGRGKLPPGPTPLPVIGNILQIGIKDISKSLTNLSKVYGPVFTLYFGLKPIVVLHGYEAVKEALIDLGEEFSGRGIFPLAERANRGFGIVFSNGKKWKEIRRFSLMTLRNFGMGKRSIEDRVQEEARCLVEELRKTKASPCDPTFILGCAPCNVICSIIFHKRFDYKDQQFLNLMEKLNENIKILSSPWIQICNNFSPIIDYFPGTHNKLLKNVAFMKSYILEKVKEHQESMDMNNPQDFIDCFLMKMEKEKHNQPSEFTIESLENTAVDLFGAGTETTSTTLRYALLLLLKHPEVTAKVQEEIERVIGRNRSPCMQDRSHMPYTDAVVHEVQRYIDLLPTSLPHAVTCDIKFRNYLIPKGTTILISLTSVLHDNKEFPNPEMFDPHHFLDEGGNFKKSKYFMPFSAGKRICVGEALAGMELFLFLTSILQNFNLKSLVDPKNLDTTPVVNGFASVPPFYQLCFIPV

For `CNc1ncnc2[nH]cc(C(=O)c3ccc(Nc4cncc(OC)c4)nc3F)c12` [Compound P-4108, [2-fluoro-6-[(5-methoxy-3-pyridyl)amino]-3-pyridyl]-[4-(methylamino)-7H-pyrrolo[2,3-d]pyrimidin-5-yl]methanone], the IC50 in experiment [1] was less than 5 µM; in experiment [2] it was less than 1 µM.

Take `CCCCNc1ncnc2[nH]cc(C(=O)c3ccc(Nc4ccc(CC)nc4)nc3F)c12` [Compound P-4100, [4-(butylamino)-7H-pyrrolo[2,3-d]pyrimidin-5-yl]-[6-[(6-ethyl-3-pyridyl)amino]-2-fluoro-3-pyridyl]methanone]: the IC50 in experiment [1] is less than 5 µM; in experiment [2], less than 0.01 µM.

For `CC(C)Nc1ncnc2[nH]cc(C(=O)c3ccc(NC4CCCCC4)nc3F)c12` [Compound P-4101, [6-(cyclohexylamino)-2-fluoro-3-pyridyl]-[4-(isopropylamino)-7H-pyrrolo[2,3-d]pyrimidin-5-yl]methanone], the IC50 in experiment [1] was 5 to 10 µM; in experiment [2], less than 0.01 µM.

In the case of `O=C(c1ccc(NC2CCC(F)(F)CC2)nc1)c1c[nH]c2ncnc(NC3CC3)c12` [Compound P-4088, [4-(cyclopropylamino)-7H-pyrrolo[2,3-d]pyrimidin-5-yl]-[6-[(4,4-difluorocyclohexyl)amino]-3-pyridyl]methanone], the IC50 in experiment [1] is more than 10 µM; in experiment [2], less than 0.1 µM.

As to `Fc1cc(Cc2c[nH]c3ncnc(NC4CC4)c23)cnc1NC1CCC(F)(F)CC1` [Compound P-4127, N-cyclopropyl-5-[[6-[(4,4-difluorocyclohexyl)amino]-5-fluoro-3-pyridyl]methyl]-7H-pyrrolo[2,3-d]pyrimidin-4-amine], the IC50 is more than 10 µM in experiment [1] and less than 0.1 µM in experiment [2].

Regarding `COc1ccc(Nc2ccc(C(=O)c3c[nH]c4ncnc(N[C@@H](C)c5ccc(F)cc5)c34)c(F)n2)cn1` [Compound P-4072, [2-fluoro-6-[(6-methoxy-3-pyridyl)amino]-3-pyridyl]-[4-[[(1S)-1-(4-fluorophenyl)ethyl]amino]-7H-pyrrolo[2,3-d]pyrimidin-5-yl]methanone], the IC50 is 5 to 10 µM in experiment [1] and less than 0.01 µM in experiment [2].

`O=C(c1ccc(Nc2ccc(C3CC3)nc2)nc1F)c1c[nH]c2ncnc(NCC(F)(F)F)c12` [Compound P-4090, [6-[(6-cyclopropyl-3-pyridyl)amino]-2-fluoro-3-pyridyl]-[4-(2,2,2-trifluoroethylamino)-7H-pyrrolo[2,3-d]pyrimidin-5-yl]methanone]: the IC50 is more than 10 µM in experiment [1] and less than 0.01 µM in experiment [2].

As to `COc1ccc(Nc2ccc(C(=O)c3c[nH]c4ncnc(NC(C)(C)C)c34)c(F)n2)cn1` [Compound P-4055, [4-(tert-butylamino)-7H-pyrrolo[2,3-d]pyrimidin-5-yl]-[2-fluoro-6-[(6-methoxy-3-pyridyl)amino]-3-pyridyl]methanone], the IC50 in experiment [1] was more than 10 µM; in experiment [2], less than 0.01 µM.

Regarding `COc1cncc(Nc2ccc(C(=O)c3c[nH]c4ncnc(NCC(F)(F)F)c34)c(F)n2)c1` [Compound P-4103, [2-fluoro-6-[(5-methoxy-3-pyridyl)amino]-3-pyridyl]-[4-(2,2,2-trifluoroethylamino)-7H-pyrrolo[2,3-d]pyrimidin-5-yl]methanone], the IC50 is more than 10 µM in experiment [1] and more than 1 µM in experiment [2].

For `CNc1ncnc2[nH]cc(C(=O)c3ccc(Nc4ccc(OC)nc4)nc3F)c12` [Compound P-4083, [2-fluoro-6-[(6-methoxy-3-pyridyl)amino]-3-pyridyl]-[4-(methylamino)-7H-pyrrolo[2,3-d]pyrimidin-5-yl]methanone], the IC50 in experiment [1] is more than 10 µM; in experiment [2], less than 0.01 µM.

For the molecule `CC1CCC(Nc2ncc(Cc3c[nH]c4ncc(Cl)cc34)cn2)CC1` (stereo not drawn) [Compound P-3009, [5-(5-Chloro-1H-pyrrolo[2,3-b]pyridin-3-ylmethyl)-pyrimidin-2-yl]-(4-methyl-cyclohexyl)-amine], the IC50 in experiment [1] and in experiment [2] was more than 10 µM in each case.

Take `CNc1ncnc2[nH]cc(C(=O)c3ccc(NC4CCC(F)(F)CC4)nc3Cl)c12` [Compound P-4058, [2-chloro-6-[(4,4-difluorocyclohexyl)amino]-3-pyridyl]-[4-(methylamino)-7H-pyrrolo[2,3-d]pyrimidin-5-yl]methanone]: the IC50 was more than 10 µM in experiment [1] and less than 1 µM in experiment [2].

With `CCc1ccc(Nc2ccc(C(=O)c3c[nH]c4ncnc(NC5CCC5)c34)c(F)n2)cn1` [Compound P-4095, [4-(cyclobutylamino)-7H-pyrrolo[2,3-d]pyrimidin-5-yl]-[6-[(6-ethyl-3-pyridyl)amino]-2-fluoro-3-pyridyl]methanone], the values for the IC50 in experiment [1] and in experiment [2] were more than 10 µM and less than 0.01 µM, respectively.

As for `COc1ccc(Nc2ccc(C(=O)c3c[nH]c4ncnc(N5CCOCC5)c34)c(F)n2)cn1` [Compound P-4070, [2-fluoro-6-[(6-methoxy-3-pyridyl)amino]-3-pyridyl]-(4-morpholino-7H-pyrrolo[2,3-d]pyrimidin-5-yl)methanone], the figures for the IC50 in experiment [1] and in experiment [2] were more than 10 µM and more than 1 µM, respectively.

Take `O=C(c1ccc(NC2CCC(F)(F)CC2)nc1Cl)c1c[nH]c2ncnc(NC3CC3)c12` [Compound P-4059, [2-chloro-6-[(4,4-difluorocyclohexyl)amino]-3-pyridyl]-[4-(cyclopropylamino)-7H-pyrrolo[2,3-d]pyrimidin-5-yl]methanone]: the results for the IC50 in experiment [1] and in experiment [2] were 5 to 10 µM and less than 0.1 µM, respectively.

As to `CNc1ncnc2[nH]cc(C(=O)c3ccc(Nc4ccc(C(F)(F)F)nc4)nc3F)c12` [Compound P-4092, [2-fluoro-6-[[6-(trifluoromethyl)-3-pyridyl]amino]-3-pyridyl]-[4-(methylamino)-7H-pyrrolo[2,3-d]pyrimidin-5-yl]methanone], the results for the IC50 in experiment [1] and in experiment [2] were less than 5 µM and less than 0.01 µM, respectively.

`CCc1ccc(Nc2ccc(C(=O)c3c[nH]c4ncnc(NC5CCCC5)c34)c(F)n2)cn1` [Compound P-4099, [4-(cyclopentylamino)-7H-pyrrolo[2,3-d]pyrimidin-5-yl]-[6-[(6-ethyl-3-pyridyl)amino]-2-fluoro-3-pyridyl]methanone]: the IC50 in experiment [1] was less than 5 µM; in experiment [2], less than 0.01 µM.

`CCc1ccc(Nc2ccc(C(=O)c3c[nH]c4ncnc(NC5CC5)c34)c(F)n2)cn1` [Compound P-4125, [4-(cyclopropylamino)-7H-pyrrolo[2,3-d]pyrimidin-5-yl]-[6-[(6-ethyl-3-pyridyl)amino]-2-fluoro-3-pyridyl]methanone]: the IC50 in experiment [1] was more than 10 µM; in experiment [2], less than 0.01 µM.
